The nature of data set [1]: Mouse brain/blood ratio test. It counts as in vivo. The settings on record: ICR mice, i.g. (10 mg/kg). The method, then:
5.1 Experimental animals: Male ICR mice, 20-25 g, 9 mice/compound. Purchased from Chengdu Ddossy Experimental Animals Co., Ltd.
5.2 Experimental design: on the day of the experiment, 18 ICR mice were randomly grouped according to their body weights. The animals were fasted with water available for 12 to 14 h one day before the administration, and were fed 4 h after the administration;
After intragastric administration, whole blood and brain tissue were collected at 0.5 h, 4 h and 24 h, and the whole blood was centrifuged to separate the plasma. The brain tissue was rinsed with cold physiological saline to remove the residual blood on the surface, drained out and then homogenized. Before analysis and detection, all samples were stored at −80° C. The samples were analyzed quantitatively by LC-MS/MS.

The target of data set [2] is hERG potassium ion channel (Homo sapiens (Human), UniProt Q12809). Briefly: Test for hERG potassium ion channel (manual whole cell patch-clamp). It counts as cell-based. The settings on record: for IC50: CHO cells stably expressing hERG, read-out: IC50 (hERG potassium channel current); for inhibition at 40 µM: human, CHO cells stably expressing hERG potassium channel, read-out: Inhibition rate at the highest concentration tested (hERG potassium channel current). The source says: Experimental platform: electrophysiological manual patch-clamp system
Sequence of hERG potassium ion channel (Q12809 whole entry): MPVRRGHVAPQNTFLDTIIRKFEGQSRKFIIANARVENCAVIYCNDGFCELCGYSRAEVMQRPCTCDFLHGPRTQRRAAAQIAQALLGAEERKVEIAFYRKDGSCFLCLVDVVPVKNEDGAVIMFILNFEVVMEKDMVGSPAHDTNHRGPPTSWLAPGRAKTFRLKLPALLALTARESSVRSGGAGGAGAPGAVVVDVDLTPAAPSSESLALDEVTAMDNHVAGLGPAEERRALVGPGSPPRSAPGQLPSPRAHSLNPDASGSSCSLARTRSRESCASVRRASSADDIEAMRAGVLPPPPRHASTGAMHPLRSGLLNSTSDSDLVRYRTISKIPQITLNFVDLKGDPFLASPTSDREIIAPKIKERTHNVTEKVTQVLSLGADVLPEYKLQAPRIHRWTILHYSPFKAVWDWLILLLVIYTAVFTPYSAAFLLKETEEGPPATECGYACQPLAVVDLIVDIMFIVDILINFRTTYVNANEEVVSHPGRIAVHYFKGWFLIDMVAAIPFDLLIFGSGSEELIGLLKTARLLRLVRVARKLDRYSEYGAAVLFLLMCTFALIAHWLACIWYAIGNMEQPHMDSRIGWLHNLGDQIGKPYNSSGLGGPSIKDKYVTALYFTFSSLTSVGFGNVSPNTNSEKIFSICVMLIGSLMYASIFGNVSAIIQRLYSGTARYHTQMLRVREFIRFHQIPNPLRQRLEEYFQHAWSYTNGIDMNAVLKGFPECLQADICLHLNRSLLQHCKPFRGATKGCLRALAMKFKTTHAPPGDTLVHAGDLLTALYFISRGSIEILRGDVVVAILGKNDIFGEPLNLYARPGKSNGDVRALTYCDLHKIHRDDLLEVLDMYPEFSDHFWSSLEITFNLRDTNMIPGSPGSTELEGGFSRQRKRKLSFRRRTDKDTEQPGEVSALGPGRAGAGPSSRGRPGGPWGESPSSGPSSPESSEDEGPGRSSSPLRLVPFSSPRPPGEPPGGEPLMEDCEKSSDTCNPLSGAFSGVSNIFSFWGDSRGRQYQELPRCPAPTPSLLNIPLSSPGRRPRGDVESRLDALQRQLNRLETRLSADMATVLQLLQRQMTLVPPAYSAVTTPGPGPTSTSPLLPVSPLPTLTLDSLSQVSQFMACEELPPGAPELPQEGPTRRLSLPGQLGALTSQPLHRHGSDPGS
Cell line: Chinese hamster ovary (CHO) cell lines stably expressing hERG potassium ion channel
Experimental method: In CHO (Chinese Hamster Ovary) cells stably expressing hERG potassium channel, whole cell patch-clamp technique was used to record hERG potassium channel current at room temperature. The glass microelectrode was made of a glass electrode blank (BF150-86-10, Sutter) by a puller. The tip resistance after filling the liquid in the electrode was about 2-5 MΩ. The glass microelectrode can be connected to the patch-clamp amplifier by inserting the glass microelectrode into an amplifier probe. The clamping voltage and data recording were controlled and recorded by the pClamp 10 software through a computer. The sampling frequency was 10 kHz, and the filtering frequency was 2 kHz. After the whole cell records were obtained, the cells were clamped at −80 mV, and the step voltage that induced the hERG potassium current (IhERG) was depolarized from −80 mV to +20 mV for 2 s, then repolarized to −50 mV, and returned to −80 mV after 1 s. This voltage stimulation was given every 10 s, and the administration process was started after the hERG potassium current was confirmed to be stable (at least 1 minute). The compound was administered for at least 1 minute at each test concentration, and at least 2 cells (n≥2) were tested at each concentration.
Data processing: Data analysis processing was carried out by using pClamp 10, GraphPad Prism 5 and Excel software. The inhibition degree of hERG potassium current (peak value of hERG tail current induced at −50 mV) at different compound concentrations was calculated by the following formula: […]
wherein, Inhibition % represents the percentage of inhibition of hERG potassium current by the compound, and I and Io represent the amplitude of hERG potassium current after and before dosing, respectively.
Compound IC50 was calculated using GraphPad Prism 5 software by fitting according to the following equation: […]
Among the equation, X represents the Log value of the tested concentration of the test sample, Y represents the inhibition percentage at the corresponding concentration, and Bottom and Top represent the minimum and maximum inhibition percentage, respectively.

Data set [3] deals with AAK1 (Homo sapiens (Human), UniProt Q2M2I8). The data set is described as follows: In vitro AAK1 enzyme activity assay (ADP-Glo). The format is biochemical. The settings on record: read-out: Inhibitory activity against AAK1 IC50. As to the method:
Compound stock solution (concentration: 10 mM, dissolved in DMSO) was diluted with DMSO to 0.2 mM and then diluted with DMSO in 5-fold gradient to obtain compound solutions with 10 concentrations. Subsequently, the compound solutions with different concentrations were diluted 50-fold in 1×kinase reaction buffer (containing 40 mM Tris, 20 mM MgCl2, 0.1% BSA and 0.5 mM DTT) for later use. AAK1 (Signalchem, Cat #A01-11G-10) was diluted with 1×kinase reaction buffer to 2-fold the final concentration (final concentrations: 30 nM and 28 nM). AAK1 was added to a 384-well white plate at 2 μL/well, and the compounds were then added at 1 μL/well. The plate was sealed with a plate-sealing film, centrifuged at 1000 rpm for 30 seconds and then placed at room temperature for 10 minutes. A mixed solution of ATP (Promega, Cat #V914B) and substrate Micro2 (GenScript, Cat #PE0890) was formulated at 4-fold the final concentration (for AAK1, the corresponding final concentrations of ATP: 15 μM and 5 μM, and the corresponding final concentration of Micro2: 0.1 mg/mL). To the reaction plate was added the mixed solution of ATP and the substrate at 1 μL/well. The plate was sealed with a plate-sealing film and centrifuged at 1000 rpm for 30 seconds. The reaction was carried out at room temperature for 60 minutes (AAK1). ADP-Glo (Promega, Cat #V9102) was transferred to the 384-well plate at 4 μL/well and centrifugation was carried out at 1000 rpm for 1 minute. The mixture was incubated at 25° C. for 40 minutes. A detection solution was transferred to the 384-well plate at 8 μL/well and centrifugation was carried out at 1000 rpm for 1 minute. The resulting mixture was incubated at 25° C. for 40 minutes. The RLU (Relative luminescence unit) signal values were read using a Biotek multilable microplate reader and the percent inhibition was calculated according to the following formula: [1−(LUMcompound−LUMpositive control)/(LUMnegative control−LUMpositive control)]×100. IC50 values were calculated using Graphpad 7.0 software using a four-parameter non-linear fit equation.

Data set [4] deals with SNL-induced mouse model of neuropathic pain. The data set is described as follows: Spinal nerve ligation (SNL)-induced mouse model of neuropathic pain, mechanical pain threshold (MPT). It counts as in vivo, C57BL/6J mice. The source says:
Male C57BL/6J mice (8 weeks old) purchased from Jinan Pengyue Experimental Animal Breeding Co., Ltd. were adaptively raised for one week and then the models were established. The specific establishment method comprises the following steps: • 1) disinfecting the surgical instrument and ligature; • 2) anesthetizing the mice with isoflurane and then placing the mice on the operating table in the prone position; • 3) shaving the fur near the hip bones of the mice and preparing the skin, and making an incision of about 2 cm along the spine; • 4) isolating the fascia along the spine, performing blunt dissection of the muscles, and exposing the transverse process of L5; • 5) carefully cutting the transverse process of L5 with forceps and exposing the L5 spinal nerve; • 6) carefully isolating the L5 nerve with a glass dissecting needle, and ligating the L5 nerve with a 5-0 ligature; and • 7) suturing the muscles and skin and disinfecting same with iodophor.
The mice that were unsuccessful in modeling were eliminated the next day after modeling (marker for successful modeling: mice with their hind paws curled up). After modeling, the mice were stroked for 3 to 5 minutes every day to ensure that the animals were familiar with the experimenter, and then the mice were placed on a metal pain measuring frame for 40 to 60 minutes of adaptation. After 3 days of acclimatization, Von Frey filaments (Aesthesio®; 0.16 g, 0.4 g, 0.6 g, 1.0 g, 1.4 g and 2.0 g) were used to test the pre-administration baseline values of the animals (Ascending testing approach). Each animal was tested twice and average values were taken, with intervals of at least 5 minutes. The animals were grouped according to the baseline values (10 animals per group). After the grouping, LX-9211 (1 and 10 mg/kg), compound 3 (1 and 10 mg/kg) or vehicle (40% PEG-400+10% ethanol+15% Tween 80+35% physiological saline) were administered intragastrically. The mice were tested for the mechanical pain threshold (MPT) at 1, 3 and 6 hours after the administration. Time-MPT curve was plotted using GraphPad 8.3.0, and statistical analysis was performed.

Data set [5] can be described thus: Pharmacokinetic test in beagle dogs. It counts as in vivo. The method, then: Experimental animals: male beagle dogs, about 8-11 kg, 6 beagle dogs/compound, purchased from Beijing Marshall Biotechnology Co., Ltd.
Experimental method: on the day of the experiment, 12 beagle dogs were randomly grouped according to their body weights. the animals were fasted with water available for 12 to 14 h one day before the administration, and were fed 4 h after the administration; and the administration was performed according to Table 2.
Before and after the administration, 1 ml of blood was taken from the jugular veins or limb veins, and placed in an EDTAK2 centrifuge tube. Centrifugation was performed at 5000 rpm at 4° C. for 10 min, and plasma was collected. Blood sampling time points for both the LX9211 intravenous administration group and intragastric administration group include: 0 min, 5 min, 15 min, 30 min, 1 h, 2 h, 4 h, 6 h, 8 h, 10 h, 12 h, and 24 h, and blood sampling time points for both the compound 19 intravenous administration group and intragastric administration group include: 0 min, 5 min, 15 min, 30 min, 1 h, 2 h, 4 h, 6 h, 8 h, 10 h, 12 h, 24 h, and 48 h. Before analysis and detection, all samples were stored at −80° C. The samples were analysed quantitatively by LC-MS/MS.

The mark [6] stands for this setting: male, dog, iv, plasma, i.v. (1 mg/kg).

Sequence of AAK1 (Q2M2I8 27-365): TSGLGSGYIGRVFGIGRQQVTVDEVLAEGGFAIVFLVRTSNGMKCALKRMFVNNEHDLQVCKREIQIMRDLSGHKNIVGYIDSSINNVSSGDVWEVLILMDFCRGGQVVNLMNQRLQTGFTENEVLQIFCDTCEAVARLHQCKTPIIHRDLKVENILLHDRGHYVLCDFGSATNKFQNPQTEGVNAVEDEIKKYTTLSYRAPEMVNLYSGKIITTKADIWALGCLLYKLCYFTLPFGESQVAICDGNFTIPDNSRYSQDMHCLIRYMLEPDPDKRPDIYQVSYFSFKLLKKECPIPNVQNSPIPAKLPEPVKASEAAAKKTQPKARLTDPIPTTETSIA

For the compound `C=C(C)C[C@](C)(N)COc1ccc(-c2ccnc(C(F)F)c2)nc1C(F)F` [Compound 3, (S)-1-((2′,6-bis(difluoromethyl)-[2,4′-bipyridin]-5-yl)oxy)-2,4-dimethylpent-4-en-2-amine], the “Brain tissue AUC0-t” value in data set [1] was found to be 36853 ng·h/g. For the same compound, in data set [1] (male, mouse, brain/plasma, po), the Kp turned out to be 64.5. In addition, the AUC(0-t) in data set [1] (male, mouse, plasma, po, read-out: Plasma AUC0-t) is 572 ng·h/mL. Also, in data set [2], the IC50 worked out at 8.75 µM and the inhibition at 40 µM turned out to be 86.6 ± 1.77%. Further, in data set [3], the IC50 came to 0.0109 µM. For the same compound, the “Time at which analgesic efficacy reached the peak after the administration” value in data set [4] (10 mg/kg intragastrically, single administration) was 3 h. Further, the “Effect on pain threshold (MPT) of mice after SNL modelling” value in data set [4] (10 mg/kg intragastrically, single administration, 1, 3 and 6 hours after administration) is reported as “effectively increased the pain threshold”. Also, in data set [4] (10 mg/kg, at 3 and 6 hours after the administration), the “Analgesic efficacy compared with LX-9211” value is “better efficacy than LX-9211”.
Regarding `COC(=O)Nc1cc(-c2ccc(OC[C@@](C)(N)CC(C)(C)F)c(C(F)F)n2)ccn1` [Compound 19, Methyl (S)-(5-((2-amino-4-fluoro-2,4-dimethylpentyl)oxy)-6-(difluoromethyl) [2,4′-bipyridin]-2′-yl)carbamate], the F in data set [5] (i.g. (3 mg/kg)) is listed as 113 ± 6.9%. Moreover, in data set [5] (setting [6]), the AUC(0-t) is 398 ± 94 ng·h/mL and the clearance turned out to be 39.8 ± 10 mL/min/kg. Further, the Vd in data set [5] (male, dog, iv, plasma, i.v. (1 mg/kg), read-out: Vdss) came to 23.6 ± 3.8 L/kg. The compound also yielded an AUC(0-t) in data set [5] (male, dog, po, plasma, i.g. (3 mg/kg)) of 1350 ± 83 ng·h/mL. Besides, in data set [2], the IC50 amounted to 24.1 µM and the inhibition at 40 µM amounted to 68.9 ± 1.8%. Further, in data set [3], the IC50 was 0.0377 µM.
On to `C=C(C)C[C@](C)(N)COc1ccc(-c2ccnc(NC(=O)[C@H]3C[C@H]3F)c2)cc1C#N` [Compound 25, (1R,2R)-N-(4-(4-(((S)-2-amino-2,4-dimethylpent-4-en-1-yl)oxy)-3-cyanophenyl)pyridin-2-yl)-2-fluorocyclopropane-1-carboxamide], for which, in data set [3], the IC50 worked out at 0.0119 µM.
The same measure, in the same setting: for `C[C@@](N)(COc1ccc(-c2ccnc(C(F)F)c2)nc1C(F)F)CC1CC1` [Compound 26, (S)-1-((2′,6-bis(difluoromethyl)-[2,4′-bipyridin]-5-yl)oxy)-3-cyclopropyl-2-methylpropan-2-amine] the value was 0.011 µM; for `COC(=O)Nc1cc(-c2cc(C(F)(F)F)c(OCC(C)(N)C=C(C)C)cn2)ccn1` (stereo not drawn) [Compound 27, Methyl (5-((2-amino-2,4-dimethylpent-3-en-1-yl)oxy)-4-(trifluoromethyl)-[2,4′-bipyridin]-2′-yl)carbamate], 0.0431 µM; for `CC(=O)Nc1cc(-c2ccc(OC[C@@](C)(N)CC(C)(O)CO)c(C#N)c2)ccn1` (stereo partly drawn) [Compound 28, N-(4-(4-(((2S)-2-amino-4,5-dihydroxy-2,4-dimethylpentyl)oxy)-3-cyanophenyl)pyridin-2-yl)acetamide], 0.00596 µM.
Same read-out and setting: next, `C=C(C)C[C@](C)(N)COc1ccc(-c2ccnc(NC(=O)[C@H]3CC3(F)F)c2)cc1C#N` [Compound 29, (1R)-N-(4-(4-{[(2S)-2-amino-2,4-dimethylpent-4-en-1-yl]oxy}-3-cyanophenyl)pyridin-2-yl)-2,2-difluorocyclopropane-1-carboxamide]: 0.011 µM; `C=C(C)C[C@](C)(N)COc1ccc(-c2ccnc(NC(=O)[C@@H]3CC3(F)F)c2)cc1C#N` [Compound 30, (1S)-N-(4-(4-{[(2S)-2-amino-2,4-dimethylpent-4-en-1-yl]oxy}-3-cyanophenyl)pyridin-2-yl)-2,2-difluorocyclopropane-1-carboxamide]: 0.00908 µM; `COC(=O)Nc1cc(-c2ccc(OC[C@@](C)(N)CC3CC3)c(C(F)F)n2)ccn1` [Compound 31, Methyl (S)-(5-(2-amino-3-cyclopropyl-2-methylpropoxy)-6-(difluoromethyl)-[2,4′-bipyridin]-2′-yl)carbamate]: 0.0109 µM.
